Assay results as given in patent publication US6200966A, “Compositions for inhibiting airway wall inflammation” (Amrad Operations Pty. Ltd., priority 1996, dated 2001).
“Also recorded” adds a separate entry of the source.

How the values were obtained:
[1] = test system: endothelial cells and fibroblasts; conditions: actively proliferating or non-quiescent; cited from earlier work
[2] = test system: guinea-pig peritoneal macrophages; assay: Superoxide anion release in peritoneal macrophages; assay type: cell-based; conditions: 10 μM
Description: Guinea-pig peritoneal macrophages were harvested and cultured according to out previous studies (Stewart & Phillips, 1989). Cells were incubated with stimuli including the chemotactic tripeptide, formyl methiony leucyl Phenylalanine (fMLP, 100 nM), Zymosan (400 μg/ml) or phorbol myristate acetate (PMA, 100 nM) for 30 min in the presence or absence of 2-methoxyestradiol (10 μM) added 15 min before the stimuli. […] All individual incubations were carried out in duplicate and experiments were carried out in macrophages from 5 guinea-pigs.

tubulin = conditions: literature; cited from earlier work
[3] = test system: Human polymorphonuclear leukocytes; assay: Phagocytosis: radioiodination of zymosan particles (125I uptake); assay type: cell-based
Description: Data are expressed as percentage of ^125 I incorporation into glass
fiber-filterable material. Assays were carried out using 1 ×

[4] = test system: polymorphonuclear leukocytes (PMN); assay: Superoxide anion generation in PMN; assay type: cell-based, human; conditions: fMLP (100 nM) or zymosan (400 μg/ml); up to 10 μM
[5] = test system: Human polymorphonuclear leukocytes; assay: Tetramethylbenzidine oxidation (myeloperoxidase release/activity) in leukocytes; conditions: for Tetramethylbenzidine oxidation: 2-methoxyestradiol 3 μM
vascular smooth muscle = conditions: Goyache et al., 1995; cited from earlier work
oestrogen receptors = conditions: Merriam et al, 1980; cited from earlier work
RBL2H3 cells = assay: Mast cell degranulation: [3H]-5HT release; assay type: cell-based; conditions: for DNP-OA-stimulated release of [3H]-5HT: ovalbumin (DNP-OA), 10 μM
Description: RBL2H3 cells were cultured in RPMI 1640 containing 10% FCS and were passaged into 24 well plates for experiments. The cells were sensitised by a 48 hour incubation with 50% (V/V) conditioned medium from a lymphoid cell line secreting anti-DNP ovalbumin antibody. During the last 24 hours of this incubation [^3 H]-5HT (1 μCi/ml) was added to each of the wells to label granular amine stores. At the end of the incubation period, the medium was aspirated, the cells were washed twice in RPMI 1640 and incubated in RPMI 1640 (0.25% BSA) in the absence or presence of 2-methyoxyoestradiol for 15 mins prior to stimulation with DNP-treated ovalbumin, A23187 or PMA for 30 mins at which time the supernatants were harvested, subjected to centrifugation (1000×g, 4° C., 5 min) and aliquots taken for determination of the amount of [^3 H]-5HT released. All experiments were carried out in quadruplicate.

[6] = test system: human cultured airway smooth muscle cells; assay: Protein synthesis: [3H]-leucine incorporation; assay type: cell-based; conditions: for activity at 0.3 µM / activity at 1 µM / activity at 3 µM / activity at 10 µM: mean ± SEM
smooth muscle = conditions: Goyache et al., 1995; cited from earlier work
[7] = test system: cultured smooth muscle cells from rabbit aorta; conditions: Nishigaki et al., 1995; cited from earlier work
[8] = test system: guinea-pig peritoneal macrophages; assay: Prostacyclin (6-oxo-PGF1α) release in peritoneal macrophages; assay type: cell-based
Description: Cells were incubated with stimuli including the chemotactic tripeptide, formyl methiony leucyl Phenylalanine (fMLP, 100 nM), Zymosan (400 μg/ml) or phorbol myristate acetate (PMA, 100 nM) for 30 min in the presence or absence of 2-methoxyestradiol (10 μM) added 15 min before the stimuli. […] All individual incubations were carried out in duplicate and experiments were carried out in macrophages from 5 guinea-pigs.

[9] = test system: airway smooth muscle cells; conditions: 10 μM
adherent monocytes = assay: Tetramethyl benzidine oxidation in adherent monocytes; assay type: cell-based, human; conditions: PMA (1 μM) or zymosan (400 μg/ml); 10 μM
[10] = Homo sapiens, 5HT (10 nM)-stimulated cells
[11] = Homo sapiens, unstimulated cells

For `COc1cc2c(cc1O)CC[C@@H]1[C@@H]2CC[C@]2(C)[C@@H](O)CC[C@@H]12` [2-methoxyestradiol, 1,3,5[10]-estratriene-2,3,17-triol 2-methylether], the “proliferation of endothelial cells and fibroblasts” value [1] is given as “inhibits proliferation”, the “superoxide anion response of macrophages, PMA” value ([2]; PMA (100 nM)) is given as “unaffected” and the “superoxide anion response of macrophages, fMLP” value ([2]; fMLP (100 nM)) is given as “reduced”. For the same compound, the “superoxide anion response of macrophages, zymosan” value ([2]; zymosan (400 μg/ml)) was “reduced; also recorded: completely blocked”, the “microtubule disruption / tubulin polymerisation” value (tubulin) was “microtubule disruption via binding at the colchicine site on tubulin” and the 125I uptake ([3]; 3 μM, PHS (pooled human serum), control (basal 2.13)) was 1.87 percentage of ^125 I incorpora. For the same compound, the 125I uptake ([3]; 3 μM, PHS, zymosan (basal 4.33)) was 3.27 percentage of ^125 I incorpora, the 125I uptake ([3]; 3 μM, no PHS, control (basal 1.80)) was 1.97 percentage of ^125 I incorpora and the 125I uptake ([3]; 3 μM, no PHS, zymosan (basal 2.83)) was 1.97 percentage of ^125 I incorpora. The 125I uptake ([3]; 10 μM, PHS, control (basal 2.13)) was 1.75 percentage of ^125 I incorpora, the 125I uptake ([3]; 10 μM, PHS, zymosan (basal 4.33)) was 1.65 percentage of ^125 I incorpora and the 125I uptake ([3]; 10 μM, no PHS, control (basal 1.80)) was 2.05 percentage of ^125 I incorpora. The 125I uptake ([3]; 10 μM, no PHS, zymosan (basal 2.83)) was 1.80 percentage of ^125 I incorpora, the “radioiodination of zymosan particles by PMN (phagocytosis)” value ([3]; 3 and 10 μM) was “significant effects being observed at both 3 and 10 μM” and the “phagocytic activity of polymorphonuclear leukocytes” value ([3]; human peripheral blood) was “reduction of phagocytic activity”. The “superoxide anion generation in PMN” value [4] was “not reduced”, the “oxidation of tetramethyl-benzidine in leukocytes” value ([5]; 3 μM, zymosan (400 μg/ml) or fMLP stimulated) was “reduced oxidation of tetramethyl-benzidine” and the Tetramethylbenzidine oxidation ([5]; control (no stimulus), 2×10^6 PMN in 0.5 ml) was -0.004 change in absorbance value. The Tetramethylbenzidine oxidation ([5]; fMLP 100 nM (basal 0.057)) was 0.028 change in absorbance value, the Tetramethylbenzidine oxidation ([5]; zymosan 400 μg/ml (basal 0.26)) was 0.013 change in absorbance value and the “myeloperoxidase activity in cell-free supernatants” value ([5]; fMLP stimulated leukocytes, highest concentration 10 μM) was “reduced only by the highest concentration”. The “release of myeloperoxidase from polymorphonuclear leukocytes” value ([5]; human peripheral blood) was “inhibits the release of myeloperoxidase”, the “vascular smooth muscle relaxation” value (vascular smooth muscle) was “relaxation of vascular smooth muscle” and the “affinity for oestrogen receptors” value (oestrogen receptors) was “not to have significant affinity”. The “release of [3H]-5HT, basal or PMA or A23187” value (RBL2H3 cells; basal, PMA (100 nM), A23187 (10 μM)) was “unaffected; also recorded: did not affect release in response to PMA”, the “DNP-OA-stimulated release of [3H]-5HT” value (RBL2H3 cells) was “reduced” and the “DNP-OA-stimulated release of [3H]-5HT” value (RBL2H3 cells; listed as 2-methoxyoestradiol) was “inhibits degranulation”. The “[3H]-leucine incorporation at 10 μM” value ([6]; 10 μM, thrombin or bFGF) was “no significant inhibitory effect”, the activity at 0.3 µM [6, 10] was 91 ± 5% and the activity at 1 µM [6, 10] was 62 ± 2%. It also gave an activity at 3 µM [6, 10] of 56 ± 2%, an activity at 10 µM [6, 10] of 51 ± 6% and an activity at 0.3 µM [6, 11] of 135 ± 3%. For the same compound, the activity at 1 µM [6, 11] was 84 ± 4%, the activity at 3 µM [6, 11] was 77 ± 3% and the activity at 10 µM [6, 11] was 113 ± 9%. For the same compound, the inhibition at 3 µM ([6]; Homo sapiens, at 3 μM, thrombin, FCS 1% or bFGF, read-out: maximum percentage reduction of [3H]-leucine incorporation) was roughly 30%, the minimal effective concentration ([6]; Homo sapiens, thrombin (0.3 U/ml), FCS (1% v/v) or bFGF (300 pM), 48 h, read-out: threshold concentration for inhibition of [3H]-leucine incorporation) was 1 µM and the “[3H]-leucine incorporation, compound alone, 10 μM” value ([6]; unstimulated, 10 μM) was “no effect”. For the same compound, the “[3H]-leucine incorporation, compound alone, 1 and 3 μM” value ([6]; unstimulated, 1 and 3 μM) was “small inhibitory effects”, the “calcium influx into smooth muscle” value (smooth muscle) was “decrease calcium influx” and the “proliferation of rabbit aorta smooth muscle cells” value [7] was “anti-proliferative effects”. For the same compound, the inhibition at 10 µM ([8]; Cavia porcellus, Peritoneal macrophage, 0.5 h, PMA (100 nM), read-out: reduction of 6-oxo-PGF1α / prostacyclin response, PMA) was 50%, the “6-oxo-PGF1α / prostacyclin generation, fMLP” value ([8]; fMLP (100 nM), 10 μM) was “completely blocked” and the “cell detachment from the culture plates” value [9] was “no cell detachment”. The “protein synthesis rates (as evidence against cytotoxicity)” value [9] was “not altered” and the “oxidation of tetramethyl benzidine in adherent monocytes” value (adherent monocytes) was “unaffected”.
